# Assay results taken from patent publication US6599882B1, “Secretin and secretin pharmaceuticals for treating lactose intolerance” (priority 1999, dated 2003).
# Ends that are not written are not given here.
# Test system: lactose intolerant individuals
substance,measurement,setting,value
"secretin (HSDGTFTSELSRLRDSARLQRLLQGLV; ends and bridges not checked; UniProt P63298 33-59, looked up)",time after infusion until some slight symptoms of lactose intolerance started again,"one severely lactose intolerant individual, one-time infusion",about 3 months
same,symptoms of lactose intolerance after consuming dairy and other lactose containing products,"one-time intravenous infusion, 1 CU per kilogram of body weight over about 1 to 4 minutes, prolonged period of time after treatment, listed as secretion",without experiencing any of the symptoms of lactose intolerance
